Results taken from US8518677B2, “Microbial bioreaction process” (Evolva Sa, priority 2007, dated 2013).
Like-named read-outs stand apart in the source and are kept apart here.

Tests used:
[1] = Stilbenoid levels in batch culture of PALCPR-evolved-III with nonyl-acetate vs control (HPLC); design: species or system S. cerevisiae; settings: for Upper phase (0.1 L) % total: PALCPR-solvent (PALCPR-evolved-III), 100 ml nonyl-acetate
Procedure: (§1) A Phenomenex (Torrance, Calif., USA) Luna 3 micrometer C18 (100×2.00 mm) column was used at 60° C. As mobile phase a gradient of acetonitrile and milliq water (both containing 50 ppm trifluoroacetic acid) was used at a flow of 0.4 ml/min. The gradient profile was linear from 15% acetonitrile to 100% acetonitrile over 20 min.
The stirrer speed was instantly set at 800 rpm. […] The cultivation will be referred to as PALCPR-solvent. […] The cultivation will be referred to as PALCPR-control.
(§2) For the determination of stilbenoids, an aliquot of 25 ml of cell broth was collected, and phase separation was initiated by centrifugation at 3500 g for 5 minutes. Both the upper nonylacetate phase and the lower aqueous medium phase were collected separately with a pipette and directly analyzed for their content of stilbenoids and intermediates by HPLC.

[2] = Stilbenoid levels in two-phase batch culture of PALCPR-evolved-III with octylacetate (HPLC); design: species or system S. cerevisiae; settings: for Upper phase (0.1 L) % total: 100 ml octylacetate from start; for Lower phase (1 L) % total: aqueous phase, octylacetate
Procedure: as §1
The stirrer speed was instantly set at 800 rpm. […] The strain is referred to as PALCPR-evolved-III.
as §2, with “octylacetate” for “nonylacetate”, “aquous” for “aqueous”, “pipet” for “pipette”

[3] = Stilbenoid levels in two-phase batch culture of evolved PALCPR (PALCPR-evolved-I) with octylacetate (HPLC); design: species or system S. cerevisiae; settings: for Upper phase (0.1 L) % total: 100 ml octylacetate on 1 L medium; for Lower phase (1 L) % total: aqueous phase, octylacetate
Procedure: as §1
(§3) For that, cells of the culture described in the previous example were harvested during mid-exponential-phase and stored at −80° C. in 15% glycerol and subsequently a fermentor, containing the same medium as described in the previous example with 10 g/l glucose and 100 g/l galactose, was then inoculated with cells of said PALCPR-solvent culture. The cells were allowed to fully consume the glucose at a stirring speed of 1000 rpm with an average dissolved oxygen content of above 70% of saturated air. At the onset of galactose consumption, the stirring rate was turned down to 300 rpm, after which slowly 100 ml of octylacetate was added.
as §2, with “octylacetate” for “nonylacetate”, “aquous” for “aqueous”, “pipet” for “pipette”

[4] = Stilbenoid levels in two-phase batch culture of PALCPR-evolved-II with octylacetate (HPLC); design: species or system S. cerevisiae; settings: for Upper phase (0.1 L) % total: 100 ml octylacetate from start; for Lower phase (1 L) % total: aqueous phase, octylacetate
Procedure: as §1
However, the medium now only contained 100 g/l galactose and did contain 100 ml of octylacetate from the beginning of the fermentation. In addition, the stirrer speed was instantly set at 800 rpm. […] The strain is referred to as PALCPR-evolved-II.
as §2, with “octylacetate” for “nonylacetate”, “aquous” for “aqueous”, “pipet” for “pipette”

[5] = Stilbenoid levels in batch culture of non-evolved FS09229 with nonyl-acetate vs control (HPLC); design: species or system S. cerevisiae; settings: FS09229-solvent; for Upper phase (0.1 L) % total: 100 ml nonyl-acetate; for Lower phase (1 L) % total: aqueous phase, nonyl-acetate
Procedure: as §1
The non-evolved FS09229 strain described in previous examples was grown in the presence of nonyl-acetate. […] The stirrer speed was instantly set at 800 rpm. […] The cultivation will be referred to as FS09229-solvent. […] The cultivation will be referred to as FS09229-control.
as §2

[6] = Stilbenoid levels in batch culture of solvent-adapted PALCPR, dodecane/octylacetate two-phase vs control (HPLC); design: species or system S. cerevisiae; settings: for Upper phase (0.3 L) % total: 200 ml dodecane + 100 ml octylacetate on 1 L medium; for Lower phase (1 L) % total: aqueous medium phase, dodecane/octylacetate
Procedure: as §1

[7] = partition coefficient between water and octanol; cited from earlier work
[8] = test system: Escherichia coli strain FS06112; experiment: Glycerol consumption of FS06112 shakeflask cultures in the presence of extraction solvent; assay type: cell-based
Procedure: (§4) A glycerol stock of strain FS06112 was used to inoculate 500 ml baffled shake flasks that contained 100 ml modified M9 medium consisting of 4.5 g/l glycerol, 1.5 g/l yeast extract, 3 g/l K2HPO4, 6.8 g/l Na2HPO4, 0.5 g/l NaCl, 1 g/l NH4C, 50 μg/ml ampicillin and 50 μg/ml kanamycin; the initial pH was set at 7.0. The shakeflasks were incubated at ambient temperature, and were mixed with a magnetic stirring bar at approximately 150 rpm. After 5 hours, isopropyl β-thiogalactopyranoside (IPTG) was added at a final concentration of 4 mM, as an inducer of the T7 promoter that was in front of each of the three genes TAL, 4CL and VST. After one hour an aliquot of 10 ml of the solvent octyl acetate was added to one shakeflask that is now referred to as FS06112-solvent; the shakeflask culture without solvent will be referred to as FS06112-control.
as §4, with “β-thiogalactopyranoside(IPTG)” for “β-thiogalactopyranoside (IPTG)”, “methyl decanoate” for “octyl acetate”
A glycerol stock of strain FS06112 was used to inoculate 500 ml baffled shake flasks that contained 100 ml modified M9 medium consisting of 4.5 g/l glycerol, 1.5 g/l yeast extract, 3 g/l K2HPO4, 6.8 g/l Na2HPO4, 0.5 g/l NaCl, 1 g/l NH4C, 50 μg/ml ampicillin and 50 μg/ml kanamycin; the initial pH was set at 7.0. […]

[9] = test system: S. cerevisiae strain PALCPR; experiment: Growth of evolved PALCPR strains in the presence of extraction solvent (CO2 production); assay type: cell-based
Procedure: as §3, with “The cells of the PALCPR-solvent culture described in the previous example were taken as starting point because the presence of the solvent mixture would possibly have already evoked adaptation of cells to solvents. For” for “For”
Galactose consumption indeed commenced again. A small arrest in CO2 production again occurred after 20 hours which, however, recovered after 5 hours, after which the cells grew exponentially with concomitant production of CO2, consumption of galactose within less than 40 hours. Based upon the CO2 production the specific growth rate was estimated to be 0.062 1/h (FIG. 2). The final biomass concentration was 21.6 g/l.
In order to further improve said strain in terms of length of lag-phase and growth rate, a 25 ml aliquot of the exponentional growing PALCPR-evolved-I strain was used to inoculate a fermentor, containing a similar medium as described in the previous example. However, the medium now only contained 100 g/l galactose and did contain 100 ml of octylacetate from the beginning of the fermentation. In addition, the stirrer speed was instantly set at 800 rpm. Upon inoculation of the fermentor, consumption of galactose only commenced after approximately 40 hours, indicated by a slow increase in CO2 signal, a decrease in dissolved oxygen and addition of base. Indeed the cells continued to grow exponentially with concomitant production of CO2, and consumed the galactose within less than 90 hours. Based upon the CO2 production the specific growth rate was estimated to be 0.041 1/h (FIG. 3). The final biomass concentration was 21.5 g/l. The strain is referred to as PALCPR-evolved-II.
Therefore, to further improve said strain in terms of both length of lag-phase and growth rate, a 50 ml aliquot of the exponentional growing PALCPR-evolved-II strain was used to inoculate a fermentor, containing a similar medium as described in the previous example (thus containing 100 g/l galactose 100 ml of octylacetate from the beginning of the fermentation). The stirrer speed was instantly set at 800 rpm. Upon inoculation of the fermentor, consumption of galactose already commenced after less then 20 hours, indicated by a slow increase in CO2 signal, a decrease in dissolved oxygen and addition of base. Indeed the cells further grew exponentially with concomitant production of CO2, and now consumed the galactose within approximately 50 hours. Based upon the CO2 production the specific growth rate was estimated to be 0.091 1/h (FIG. 4). The final biomass concentration was 18.9 g/l. The strain is referred to as PALCPR-evolved-III.
The evolved PALCPR-evolved-III strain described in the previous example was grown in the presence of nonyl-acetate, a similar solvent as octylacetate with one additional carbon atom. A 1 ml aliquot of a glycerol stock that was made from an exponentional growing PALCPR-evolved-III strain was used to inoculate a fermentor, containing a similar medium as described in the previous example, containing only 100 g/l galactose and 100 ml of nonyl-acetate from the beginning of the fermentation. The stirrer speed was instantly set at 800 rpm. Upon inoculation of the fermentor, consumption of galactose only commenced after approximately 70 hours, indicated by a slow increase in CO2 signal, a decrease in dissolved oxygen and addition of base. […]

[10] = PALCPR-evolved-II, 100 ml solvent from start, 800 rpm
[11] = PALCPR-evolved-III, 100 ml solvent from start, 800 rpm, fresh inoculum

Row | SMILES | Upper phase (0.1 L) % total [2] [% total] | Lower phase (1 L) % total [2] [% total] | Upper phase (0.1 L) % total [3] [% total] | Lower phase (1 L) % total [3] | Upper phase (0.1 L) % total [4] [% total] | Lower phase (1 L) % total [4] | Upper phase (0.1 L) % total [5] [% total] | Lower phase (1 L) % total [5] | Upper phase (0.3 L) % total [6] [% total] | Lower phase (1 L) % total [6] [% total] | logP [7] | other results
1 | O=C(O)C=Cc1ccccc1 [Cinnamic acid, cinnamic acid] | 71.3 | 28.7 | 52.5 | 47.5 % total | 88.6 | 11.4 % total | 42.2 | 57.8 % total | 56.9 | 43.1 |  | Upper phase (0.1 L) % total [1]: 29.6 % total; Upper phase (0.1 L) % total ([1]; listed as cinnamic acid): 25 % total; Lower phase (1 L) % total ([1]; PALCPR-solvent, aqueous phase, nonyl-acetate): 70.4 % total; Upper phase (0.1 L) % total ([5]; listed as cinnamic acid): 42 % total
2 | O=C(O)/C=C/c1ccc(O)cc1 [Coumaric acid, 4-coumaric acid] | 40.0 | 60.0 | 18.0 | 82.0 % total | 59.3 | 40.7 % total |  |  |  |  |  | 
3 | Oc1cc(O)cc(/C=C/c2ccccc2)c1 [Pinosylvin, pinosylvin] | 90.3 | 9.7 | 100 | 0; 0 % total | 100 | 0; 0 % total | 100 | 0.0; 0.0 % total | 95.2 | 4.8 |  | Upper phase (0.1 L) % total ([2]; listed as pinosylvin): 100 % total; Upper phase (0.3 L) % total ([6]; listed as pinosylvin): 95 % total
4 | CCCCCCCCCC(=O)OC [methyl decanoate] |  |  |  |  |  |  |  |  |  |  | 4.3 | time in which the glycerol was consumed [8]: ≤ 48 h
5 | CCCCCCCCOC(C)=O [n-octyl acetate] |  |  |  |  |  |  |  |  |  |  | 3.7 | time in which 2.5 g/l of glycerol was consumed [8]: ≤ 24 h; lag-phase until galactose consumption commenced [9, 10]: approximately 40 hours; specific growth rate [9, 10]: 0.041 h⁻¹; lag-phase until galactose consumption commenced [9, 11]: < 20 h; specific growth rate [9, 11]: 0.091 h⁻¹; time until cells started to grow after solvent addition (lag-phase) ([9]; cells from PALCPR-solvent culture (PALCPR-evolved-I), 100 ml solvent added to 1 L): approximately 170 hours; specific growth rate ([9]; cells from PALCPR-solvent culture (PALCPR-evolved-I), 100 ml solvent added to 1 L at onset of galactose consumption): 0.062 h⁻¹
6 | CCCCCCCCCC(C)=O [undecanone] |  |  |  |  |  |  |  |  |  |  |  | time in which the glycerol was consumed ([8]; FS06112-solvent, 10 ml solvent on 100 ml medium, control 30 hours): ≤ 48 h
